Data as given in ChEMBL document CHEMBL1122681, “(Acylaryloxy)acetic acid diuretics. 5. [(2-Alkyl- and 2,2-disubstituted-1,3-dioxo-5-indanyl)oxy]acetic acids” (J Med Chem, 1984).

Experiments:
[1] = Volume of urine at 27 mg/kg; assay type: ADME, organism-based; set-up: dose 27 mg/kg; settings: in vivo
[2] = Volume of urine at 3 mg/kg; assay type: ADME, organism-based; set-up: dose 3 mg/kg; settings: in vivo
[3] = Volume of urine at 81 mg/kg; assay type: ADME, organism-based; set-up: dose 81 mg/kg; settings: in vivo
[4] = Volume of urine at 9 mg/kg; assay type: ADME, organism-based; set-up: dose 9 mg/kg; settings: in vivo
Canis familiaris [5] = species: Canis familiaris; assay: Volume of urine in dog; assay type: ADME, organism-based, Canis lupus familiaris; settings: in vivo
Canis familiaris [6] = assay: Compound was evaluated for diuretic activity, in female mongrel dogs by measuring volume of urine, after iv administration of 5 mg/kg (control/compound treatment results) Control = 2; assay type: ADME, organism-based, Canis lupus familiaris; set-up: dose 5 mg/kg, route intravenous; settings: dog, in vivo
Pan troglodytes [7] = assay: Compound was evaluated for diuretic activity in chimpanzee measured as increase in volume of urine at 1 mg/kg; assay type: functional
Pan troglodytes [8] = assay: Compound was evaluated for diuretic activity in chimpanzee measured as increase in volume of urine at 5 mg/kg; assay type: functional
Pan troglodytes [9] = assay: Compound was evaluated for diuretic activity in chimpanzee measured as clearance of […] and urate after intra venous administration of 1 mg/kg; assay type: functional, Urine
Pan troglodytes [10] = assay: Compound was evaluated for diuretic activity in chimpanzee measured as clearance of […] and urate after peroral administration of 5 mg/kg; assay type: functional, Urine; settings: route oral
Pan troglodytes [11] = assay: Compound was evaluated for diuretic activity in chimpanzee measured as increase in the number of microequivalents of Na+ /min at 1 mg/kg; assay type: functional, Urine
Pan troglodytes [12] = assay: Compound was evaluated for diuretic activity in chimpanzee measured as increase in the number of microequivalents of Na+ /min at 5 mg/kg; assay type: functional, Urine
Pan troglodytes [13] = assay: Compound was evaluated for diuretic activity in chimpanzee measured as increase in the number of microequivalents of Cl- electrolyte/min at 1 mg/kg; assay type: functional, Urine
Pan troglodytes [14] = assay: Compound was evaluated for diuretic activity in chimpanzee measured as increase in the number of microequivalents of Cl- electrolyte/min at 5 mg/kg; assay type: functional, Urine
Pan troglodytes [15] = assay: Compound was evaluated for diuretic activity in chimpanzee measured as increase in the number of microequivalents of K+ /min at 1 mg/kg; assay type: functional, Urine
Canis familiaris [16] = assay: Compound was evaluated for diuretic activity, in female mongrel dogs by measuring amount of Cl- in urine after iv administration of 5 mg/kg (control/compound treatment results) Control = 9; assay type: functional, Canis lupus familiaris
Pan troglodytes [17] = assay: Compound was evaluated for diuretic activity in chimpanzee measured as increase in the number of microequivalents of K+ /min at 5 mg/kg; assay type: functional, Urine
Canis familiaris [18] = assay: Compound was evaluated for diuretic activity, in female mongrel dogs by measuring amount of K+ in urine after iv administration of 5 mg/kg (control/compound treatment results) Control = 5; assay type: functional, Canis lupus familiaris
Canis familiaris [19] = assay: Compound was evaluated for diuretic activity, in female mongrel dogs by measuring amount of Na+ in urine after iv administration of 5 mg/kg (control/compound treatment results) Control = 24; assay type: functional, Canis lupus familiaris
Canis familiaris [20] = assay: Compound was evaluated for diuretic activity, administered orally in female mongrel dogs (5 mg/kg) measured as milliequivalents of Cl-; assay type: functional, Canis lupus familiaris, Urine
Canis familiaris [21] = assay: Compound was evaluated for diuretic activity, administered orally in female mongrel dogs (5 mg/kg) measured as milliequivalents of K; assay type: functional, Canis lupus familiaris, Urine
Canis familiaris [22] = assay: Compound was evaluated for diuretic activity, administered orally in female mongrel dogs (5 mg/kg) measured as milliequivalents of Na; assay type: functional, Canis lupus familiaris, Urine
Rattus norvegicus [23] = assay: Compound was evaluated for diuretic activity administered orally in female rats measured as milliequivalents of Na+x 100 / cage at 81 mg/kg; assay type: functional, Urine; settings: route oral
Rattus norvegicus [24] = assay: Compound was evaluated for diuretic activity administered orally in female rats measured as milliequivalents of Na+x 100 / cage at 9 mg/kg; assay type: functional, Urine; settings: route oral
Rattus norvegicus [25] = assay: Compound was evaluated for diuretic activity administered orally in female rats measured as milliequivalents of Cl-+x 100 / cage at 27 mg/kg; assay type: functional, Urine; settings: route oral
Rattus norvegicus [26] = assay: Compound was evaluated for diuretic activity administered orally in female rats measured as milliequivalents of Cl-x 100 / cage at 3 mg/kg; assay type: functional, Urine; settings: route oral
Rattus norvegicus [27] = assay: Compound was evaluated for diuretic activity administered orally in female rats measured as milliequivalents of Cl-x 100 / cage at 81 mg/kg; assay type: functional, Urine; settings: route oral
Rattus norvegicus [28] = assay: Compound was evaluated for diuretic activity administered orally in female rats measured as milliequivalents of Cl-x 100 / cage at 9 mg/kg; assay type: functional, Urine; settings: route oral
Rattus norvegicus [29] = assay: Compound was evaluated for diuretic activity administered orally in female rats measured as milliequivalents of K+x 100 / cage at 27 mg/kg; assay type: functional, Urine; settings: route oral
Rattus norvegicus [30] = assay: Compound was evaluated for diuretic activity administered orally in female rats measured as milliequivalents of K+x 100 / cage at 3 mg/kg; assay type: functional, Urine; settings: route oral
Rattus norvegicus [31] = assay: Compound was evaluated for diuretic activity administered orally in female rats measured as milliequivalents of K+x 100 / cage at 81 mg/kg; assay type: functional, Urine; settings: route oral
Rattus norvegicus [32] = assay: Compound was evaluated for diuretic activity administered orally in female rats measured as milliequivalents of K+x 100 / cage at 9 mg/kg; assay type: functional, Urine; settings: route oral
Rattus norvegicus [33] = assay: Compound was evaluated for diuretic activity administered orally in female rats measured as milliequivalents of Na+x 100 / cage at 27 mg/kg; assay type: functional, Urine; settings: route oral
Rattus norvegicus [34] = assay: Compound was evaluated for diuretic activity administered orally in female rats measured as milliequivalents of Na+x 100 / cage at 3 mg/kg; assay type: functional, Urine; settings: route oral
Canis familiaris [35] = assay: Compound was evaluated for diuretic activity, in female mongrel dogs by measuring volume of urine, after iv administration of 5 mg/kg (control/compound treatment results) Control = 1; assay type: ADME, organism-based, Canis lupus familiaris; set-up: dose 5 mg/kg, route intravenous; settings: dog, in vivo
[36] = volume of urine at 3 mg/kg; assay type: ADME, organism-based; set-up: dose 3 mg/kg; settings: in vivo
[37] = volume of urine at 81 mg/kg; assay type: ADME, organism-based; set-up: dose 81 mg/kg; settings: in vivo
[38] = volume of urine at 9 mg/kg; assay type: ADME, organism-based; set-up: dose 9 mg/kg; settings: in vivo
Pan troglodytes [39] = assay: Compound was evaluated for diuretic activity in chimpanzee measured as clearance of […] and urate after intra venous administration of 1.25 mg/kg.; assay type: functional, Urine
Pan troglodytes [40] = assay: Compound was evaluated for diuretic activity in chimpanzee measured as increase in the number of microequivalents of Na+ /min at 1.25 mg/kg; assay type: functional, Urine
Pan troglodytes [41] = assay: Compound was evaluated for diuretic activity in chimpanzee measured as increase in the number of microequivalents of cl- /min at 1.25 mg/kg; assay type: functional, Urine
Pan troglodytes [42] = assay: Compound was evaluated for diuretic activity in chimpanzee measured as increase in volume of urine at 0.125 mg/kg; assay type: functional
Pan troglodytes [43] = assay: Compound was evaluated for diuretic activity in chimpanzee measured as increase in the number of microequivalents of K+ /min at 1.25 mg/kg; assay type: functional, Urine
Canis familiaris [44] = assay: Compound was evaluated for diuretic activity, in female mongrel dogs by measuring amount of Cl- in urine after iv administration of 5 mg/kg (control/compound treatment results) Control = 8; assay type: functional, Canis lupus familiaris
Canis familiaris [45] = assay: Compound was evaluated for diuretic activity, in female mongrel dogs by measuring amount of Na+ in urine after iv administration of 5 mg/kg (control/compound treatment results) Control = 42; assay type: functional, Canis lupus familiaris
[46] = volume of urine at 27 mg/kg; assay type: ADME, organism-based; set-up: dose 27 mg/kg; settings: in vivo
Pan troglodytes [47] = assay: Compound was evaluated for diuretic activity in chimpanzee measured as clearance of […] and urate after intra venous administration of 5 mg/kg.; assay type: functional, Urine
Pan troglodytes [48] = assay: Compound was evaluated for diuretic activity in chimpanzee measured as increase in the number of microequivalents of Cl- /min at 5 mg/kg; assay type: functional, Urine
Canis familiaris [49] = assay: Compound was evaluated for diuretic activity, in female mongrel dogs by measuring amount of K+ in urine after iv administration of 5 mg/kg (control/compound treatment results) Control = 13; assay type: functional, Canis lupus familiaris
Canis familiaris [50] = assay: Compound was evaluated for diuretic activity, in female mongrel dogs by measuring amount of Cl- in urine after iv administration of 5 mg/kg (control/compound treatment results) Control = 5; assay type: functional, Canis lupus familiaris
Canis familiaris [51] = assay: Compound was evaluated for diuretic activity, in female mongrel dogs by measuring amount of Na+ in urine after iv administration of 5 mg/kg (control/compound treatment results) Control = 59; assay type: functional, Canis lupus familiaris

Row | Urine volume (Canis familiaris [6]) [mL/min] | SMILES | Increase in volume (Pan troglodytes [7]) [mL/min] | Increase in volume (Pan troglodytes [8]) [mL/min] | Delta C urate / delta C insulin (Pan troglodytes [10]) | Increase (Pan troglodytes [11]) | Increase (Pan troglodytes [12]) | Increase (Pan troglodytes [13]) | Increase (Pan troglodytes [14]) | Increase (Pan troglodytes [15]) | Increase (Pan troglodytes [17]) | Activity (Canis familiaris [18]) [u equiv min-1] | Activity (Rattus norvegicus [23]) | Activity (Rattus norvegicus [24]) | Activity (Rattus norvegicus [25]) | Activity (Rattus norvegicus [26]) | Activity (Rattus norvegicus [27]) | Activity (Rattus norvegicus [28]) | Activity (Rattus norvegicus [29]) | Activity (Rattus norvegicus [30]) | Activity (Rattus norvegicus [31]) | also measured
1 | 5 | Cc1c(OCC(=O)O)cc2c(c1Cl)C(=O)C1(CCCC1)C2=O [(ACYLARYLOXY)ACETIC ACID] | 1.1 | -0.5 | 0.053 | 59 | 170 | 117 | 211 | 37 | 39 | 23 | 47 | 26 | 30 | 10 | 61 | 15 | 32 | 23 | 29 | Urine volume [1]: 33 mL; Urine volume [2]: 29 mL; Urine volume [3]: 29 mL; Urine volume [4]: 29 mL; Urine volume (Canis familiaris [5]): 253 mL; Delta C urate / delta C insulin (Pan troglodytes [9]): 0.088; Activity (Canis familiaris [16]): 245 u equiv min-1; Activity (Canis familiaris [19]): 305 u equiv min-1; Activity (Canis familiaris [20]): 3; Activity (Canis familiaris [21]): 1; Activity (Canis familiaris [22]): 2; Activity (Rattus norvegicus [32]): 30; Activity (Rattus norvegicus [33]): 35; Activity (Rattus norvegicus [34]): 14
2 | – | CCC1(C)C(=O)c2cc(OCC(=O)O)c(Cl)c(Cl)c2C1=O (stereo not drawn) | 2 | – | 0.007 | – | 217 | – | 226 | – | 30 | 7 | 164 | 80 | 130 | 64 | 250 | 97 | 43 | 46 | 89 | Urine volume (Canis familiaris [35]): 2 mL/min; Urine volume [36]: 30 mL; Urine volume [37]: 31 mL; Urine volume [38]: 29 mL; Delta C urate / delta C insulin (Pan troglodytes [39]): 0.43; Increase (Pan troglodytes [40]): 187; Increase (Pan troglodytes [41]): 267; Increase in volume (Pan troglodytes [42]): 1.4 mL/min; Increase (Pan troglodytes [43]): 41; Activity (Canis familiaris [44]): 179 u equiv min-1; Activity (Canis familiaris [45]): 247 u equiv min-1; Activity (Rattus norvegicus [32]): 35; Activity (Rattus norvegicus [33]): 101; Activity (Rattus norvegicus [34]): 50; Urine volume [46]: 27 mL
3 | 3 | Cc1c(OCc2nn[nH]n2)cc2c(c1Cl)C(=O)C1(CCCC1)C2=O | 0.6 | 0 | 0.026 | 119 | 5 | 172 | – | 55 | 2 | – | – | – | – | – | – | – | – | – | – | Delta C urate / delta C insulin (Pan troglodytes [47]): 0.128; Increase (Pan troglodytes [48]): 36; Activity (Canis familiaris [49]): 27 u equiv min-1; Activity (Canis familiaris [50]): 11 u equiv min-1; Activity (Canis familiaris [51]): 193 u equiv min-1
